Results as given in patent US20050043307A1, “Pyridazine, pyrimidine and pyrazine ethyne compounds” (priority 1999, published 2005).

| melting point [°C] | Compound |
| --- | --- |
| 69 to 70 | CC(C)(O)C#Cc1nccs1 [Example 2, 2-Methyl-4-(1,3-thiazol-2-yl)-3-butyn-2-ol] |
| 124 to 125 | Clc1cncc(C#Cc2nccs2)c1 [Example 6, 3-Chloro-5-(1,3-thiazol-2-ylethynyl)pyridine] |
